Results taken from patent publication US20110098177A1, “METHODS AND COMPOSITIONS OF PLANT MICRONUTRIENTS” (NOVUS INTERNATIONAL INC., priority 2006, published 2011).
Where two headings read alike, the source gives them in different places. Marks after values point to notes of the source that are not given here.

How the values were obtained:
Type in all cases: in vivo
Aristotle bell pepper = test: Marketable yield per plant, greenhouse Fall 2007, bell pepper; settings: for Marketable yield per plant, Pepper: foliar application at 3 and 7 WAT, rates not separated; for Bell pepper yield compared with control (in words): foliar applications, P<0.05
Procedure: The following experiments were performed in a green house during the fall of 2007 at GCREC, Balm, University of Florida. Fifteen products, at 3 different application rates were examined. The plot size was 2-gallon pots. Crop set-up, procedures and variables were as follows.
Transplants of ‘Florida-47’ tomato and ‘Aristotle’ bell pepper plants in the 4-true leaf stage (about 6 inches tall) were planted in 2-gal pots on Aug. 27, 2007. Pots were filled with a commercially available planting medium. This medium was selected based on the mineral composition of the products to be applied without providing significant nutritional inputs to the crops. Irrigation was provided with drip lines delivering between 0.50 and 0.33 gal/day/pot for tomato and bell pepper, respectively, and the crops were irrigated three times per day. No foliar pesticides were necessary.
There were four control treatments corresponding to each target micronutrient in which non-Fe, non-Mn, non-Zn or non-Cu pots received all other essential nutrients under non-limiting conditions.
Treatments were applied at three rates (high, medium and low) obtained from the estimated concentration of Zn, Fe, Cu, and Mn foliarly-applied in tomato and bell pepper in field situations (Table 1). Products were weighed and dissolved in 200 ml of deionized water with a non-ionic surfactant and applied to the newly-matured open leaves of each crop at 3 and 7 weeks after transplant (WAT). Treated pots were isolated during application to avoid cross-contamination of other treatments.
Medium nutrient concentration was determined 1 week before treatment. The mineral composition of the medium was 26.8 ppm NH4—N, 49 ppm NO3—N, 15.8 ppm P, 91.2 ppm K, 82.3 ppm Ca, 58.2 ppm Mg, 23.9 ppm Na, 125.6 ppm S, 1.33 ppm Fe, 0.39 ppm Mn, 0.35 ppm Zn, 0.05 pp, Cu, 0.04 ppm B, 0 ppm Mo, 0.73 ppm Al, and 12.1 ppm Si. The pH of the medium was 5.36 and the electric conductivity was 1.38 mS/cm. The foliar tissue analysis was performed at 6 WAT and the concentration of N, P, K, Mg, Ca, S, B, Zn, Mn, Fe, and Cu was determined by a commercial laboratory. Plant toxicity was determined at 4 WAT by using a 0-10 visual scale, where 0=no visible damage and 10=total plant death. Marketable fruit weight was collected 2 times in bell pepper and 4 times in tomato following USDA standards.
Data were analyzed using a general linear model, and means were separated using orthogonal contrasts at the 5% significance level.

Tygress tomato plants [1] = settings: for Toxicity (0-10): 0=no injury, 10=plant death
In short: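 Greenhouse 'Tygress' tomatoes in micronutrient-deficient medium received foliar micronutrient treatments at 6 weeks after transplanting, 200 mL/plant in deionized water with non-ionic surfactant. Foliar injury rated visually 0 (none) to 10 (plant death); randomized complete block, 6 replications, LSD at 5%.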

Tygress tomato plants [2] = test: Yields of tomato fruits, greenhouse spring 2009 (Examples 13-15)
In short: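 Greenhouse 'Tygress' tomatoes in micronutrient-deficient medium received foliar Cu/Fe source treatments at 6 WAT (200 mL/plant, deionized water plus non-ionic surfactant). Marketable fruit was harvested three times from 10 WAT and graded by size. RCBD, 6 replications, GLM with LSD at 5%.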

Tygress tomato plants [3] = test: Foliar nutrient concentration at 7 WAT, greenhouse tomato spring 2009 (Examples 13-15); settings: tomato leaves 1 week after treatment
In short: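 Greenhouse 'Tygress' tomatoes in micronutrient-deficient medium received foliar treatments at 6 WAT (200 mL/plant, deionized water plus non-ionic surfactant). Newest non-applied leaves sampled at 7 WAT and analysed for N, P, K, Mg, Ca, B, Zn, Mn, Fe and Cu. Randomized complete block design with 6 replications; means separated by LSD at 5%.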

[4] = system: soybean plants (Asgrow 1102); test: ICP-MS micronutrient content of soybean trifoliates (Examples 11-12); design: Micronutrient content from ICP-MS analysis: Mn: unit not given here; settings: for Micronutrient content from ICP-MS analysis: Fe: in ppm (unit assumed)
Procedure: The following experiments were performed on soybean plants growing in open-field plots during the summer and fall of 2008 at two production fields in West Central Minnesota. […] Trial design was a randomized complete block with 4 replications. Each plot measured 10' by 30' and consisted of five 22'' rows. Although all five rows of each plot were treated, only the center three rows (25' in length) of each plot were machine harvested. The two fields selected for these studies had historical Iron Deficiency Chlorosis (IDC) issues. The two field sites were planted by farmers with elite Roundup Ready commodity type soybean varieties with IDC tolerance (Asgrow 1102, Monsanto Corp.). […] BIOX-M was applied at a rate of 1.12 kg Mn/ha. […] All V4 treatments were applied in 10 gallons per acre of water with a backpack sprayer with a hand boom designed to “band” apply product directly to the plant row. Three nozzles with ConeJet TXVS-2 tips were oriented on either side and over the top of each row. This maximized the applied product to the plant tissue itself and minimized application of product to the soil surface. […] The V6 treatments (where applicable) were applied in 20 gallons per acre of water to increase the suspension of the BIOX products. […] The harvested plants were dried, ground, and subjected to Inductively Coupled Plasma-Mass Spectrometry (ICP-MS) analysis to determine plant micronutrient content.

[5] = BIOX-Cu at 0.46 and 0.55 lb/acre, Cu-sulfate at 0.8 lb/acre, BIOX-EDC at 0.4 lb/acre

With `CSCCC(O)C(=O)[O-].CSCCC(O)C(=O)[O-].[Cu+2]` (centres unmarked) [BIOX-Cu, Cu-HMTBA] the “Marketable yield per plant, Pepper” value (Aristotle bell pepper) was 4.0* lb/plant, the “Bell pepper yield compared with control (in words)” value (Aristotle bell pepper) was “significantly increased” and the “Toxicity compared to non-treated control plants, statement” value (Tygress tomato plants [1]; [5]) was “increased levels of toxicity”. The “Toxicity (0-10)” value (Tygress tomato plants [1]; Cu 0.14 lb/acre) was 0, the “Toxicity (0-10)” value (Tygress tomato plants [1]; Cu 0.28 lb/acre) was 1 and the “Toxicity (0-10)” value (Tygress tomato plants [1]; Cu 0.46 lb/acre) was 5. The “Toxicity (0-10)” value (Tygress tomato plants [1]; Cu 0.55 lb/acre) was 6, the “Toxicity, statement” value (Tygress tomato plants [1]; the two low levels of BIOX-Cu (0.14 and 0.28 lb/acre)) was “no toxic effects” and the “Marketable tomato yields compared to non-treated control, statement” value (Tygress tomato plants [2]; [5]) was “did not alter marketable yields relative to the non-treated control”. The “Marketable tomato yields compared to non-treated control, statement” value (Tygress tomato plants [2]; BIOX-Cu at the 0.14 and 0.28 lb/acre levels) was “significantly increased marketable tomato yields”, the Marketable yield (Tygress tomato plants [2]; Cu 0.14 lb/acre) was 2350 a g/plant and the Marketable yield (Tygress tomato plants [2]; Cu 0.28 lb/acre) was 2500 a g/plant. For the same compound, the Marketable yield (Tygress tomato plants [2]; Cu 0.46 lb/acre) was 1250 b g/plant, the Marketable yield (Tygress tomato plants [2]; Cu 0.55 lb/acre) was 1700 b g/plant and the “Foliar Cu concentration” value (Tygress tomato plants [3]; Cu 0.14 lb/acre) was 72 ppm. For the same compound, the “Foliar Cu concentration” value (Tygress tomato plants [3]; Cu 0.28 lb/acre) was 91 ppm, the “Foliar Cu concentration” value (Tygress tomato plants [3]; Cu 0.46 lb/acre) was 208 ppm and the “Foliar Cu concentration” value (Tygress tomato plants [3]; Cu 0.55 lb/acre) was 397 ppm.
`CSCCC(O)C(=O)[O-].CSCCC(O)C(=O)[O-].[Mn+2]` (centres unmarked) [BIOX-M, Mn-HMTBA] was tested, and the “Marketable yield per plant, Pepper” value (Aristotle bell pepper) was 3.9* lb/plant, the “Bell pepper yield compared with control (in words)” value (Aristotle bell pepper) was “significantly increased” and the “Micronutrient content from ICP-MS analysis: Mn” value (“Micronutrient content … Mn” below) ([4]; 7.0 kg/ha, V4, Foxhome) was 78.31. The “Micronutrient content from ICP-MS analysis: Fe” value (shortened to “Micronutrient content … Fe”) ([4]; 7.0 kg/ha, V4, Foxhome) was 90.52, the “Micronutrient content … Mn” value ([4]; 7.0 kg/ha, V4, Renville) was 88.64 and the “Micronutrient content … Fe” value ([4]; 7.0 kg/ha, V4, Renville) was 99.40.
In the case of `CSCCC(O)C(=O)[O-].CSCCC(O)C(=O)[O-].[Zn+2]` (centres unmarked) [BIOX-Z, Zn-HMTBA], the “Marketable yield per plant, Pepper” value (Aristotle bell pepper) was 2.9* lb/plant and the “Bell pepper yield compared with control (in words)” value (Aristotle bell pepper) was “significantly increased”.
In the case of Fe-HMTBA [BIOX-Fe], the “Toxicity (0-10)” value (Tygress tomato plants [1]; Fe 0.28 lb/acre) was 0, the “Toxicity (0-10)” value (Tygress tomato plants [1]; Fe 0.57 lb/acre) was 0 and the “Toxicity (0-10)” value (Tygress tomato plants [1]; Fe 1.12 lb/acre) was 1. For the same compound, the “Toxicity (0-10)” value (Tygress tomato plants [1]; Fe 1.74 lb/acre) was 1, the “Toxicity (0-10)” value (Tygress tomato plants [1]; Fe 2.3 lb/acre) was 2 and the “Toxicity relative to the non-treated control, statement” value (Tygress tomato plants [1]; all levels of BIOX-Fe, Fe-sulfate at 2.0 lb/acre, BIOX-EDF at 0.3 lb/acre) was “no increased toxicity relative to the non-treated control”. For the same compound, the “Marketable tomato yields compared to non-treated control, statement” value (Tygress tomato plants [2]; BIOX-Fe at all levels, Fe-sulfate at 2.0 lb/acre, BIOX-EDF at 0.3 lb/acre) was “significantly higher marketable tomato yields than the non-treated control”, the Marketable yield (Tygress tomato plants [2]; Fe 0.28 lb/acre) was 1750 g/plant and the Marketable yield (Tygress tomato plants [2]; Fe 0.57 lb/acre) was 1900 g/plant. For the same compound, the Marketable yield (Tygress tomato plants [2]; Fe 1.12 lb/acre) was 2100 g/plant, the Marketable yield (Tygress tomato plants [2]; Fe 1.74 lb/acre) was 1900 g/plant and the Marketable yield (Tygress tomato plants [2]; Fe 2.3 lb/acre) was 2400 g/plant. For the same compound, the “Micronutrient content … Mn” value ([4]; 0.558 kg/ha, V4, V6, Foxhome) was 76.21, the “Micronutrient content … Fe” value ([4]; 0.558 kg/ha, V4, V6, Foxhome) was 88.30 and the “Micronutrient content … Mn” value ([4]; 0.558 kg/ha, V4, V6, Renville) was 96.44. The “Micronutrient content … Fe” value ([4]; 0.558 kg/ha, V4, V6, Renville) was 96.26, the “Micronutrient content … Mn” value ([4]; 0.558 kg/ha, V4, Foxhome) was 81.82 and the “Micronutrient content … Fe” value ([4]; 0.558 kg/ha, V4, Foxhome) was 83.38. The “Micronutrient content … Mn” value ([4]; 0.558 kg/ha, V4, Renville) was 88.29, the “Micronutrient content … Fe” value ([4]; 0.558 kg/ha, V4, Renville) was 98.39 and the “Micronutrient content … Mn” value ([4]; 1.12 kg/ha, V4, V6, Foxhome) was 87.67. For the same compound, the “Micronutrient content … Fe” value ([4]; 1.12 kg/ha, V4, V6, Foxhome) was 83.35, the “Micronutrient content … Mn” value ([4]; 1.12 kg/ha, V4, V6, Renville) was 89.00 and the “Micronutrient content … Fe” value ([4]; 1.12 kg/ha, V4, V6, Renville) was 98.74. The “Micronutrient content … Mn” value ([4]; 1.12 kg/ha, V4, Foxhome) was 72.70, the “Micronutrient content … Fe” value ([4]; 1.12 kg/ha, V4, Foxhome) was 84.93 and the “Micronutrient content … Mn” value ([4]; 1.12 kg/ha, V4, Renville) was 76.15. The “Micronutrient content … Fe” value ([4]; 1.12 kg/ha, V4, Renville) was 97.42, the “Foliar Fe concentration” value (Tygress tomato plants [3]; Fe 0.28 lb/acre) was 249 ppm and the “Foliar Fe concentration” value (Tygress tomato plants [3]; Fe 0.57 lb/acre) was 388 ppm. The “Foliar Fe concentration” value (Tygress tomato plants [3]; Fe 1.12 lb/acre) was 517 ppm, the “Foliar Fe concentration” value (Tygress tomato plants [3]; Fe 1.74 lb/acre) was 453 ppm and the “Foliar Fe concentration” value (Tygress tomato plants [3]; Fe 2.3 lb/acre) was 383 ppm.
